# From patent US8865901B2, “Gain-of-function Bcl-2 inhibitors” (priority 2009, dated 2014)
# Like-named read-outs stand apart in the source and are kept apart here.
# Columns and labels:
# [1] = system: TAMH cells overexpressing Bcl-xL (TAMH-Bcl-xL, Tabx2s); test: Cytotoxicity / apoptosis induction in TAMH cells overexpressing Bcl-xL; assay type: cell-based; settings: for Neo:Bcl: ratio Neo to Bcl-xL cells
# Procedure: (§1) To examine the sensitivity of cells over-expressing Bcl-xL to various mitochondrial inhibitors and apoptosis inducers, cell lines over-expressing Bcl-xL were prepared and tested according to Hockenberry et al. U.S. Pat. No. 7,241,804, hereby incorporated by reference in its entirety. Competitive binding of compounds with fluorescent antimycin A3, and competitive binding of compounds with BH3 peptide and Bcl-2. Competitive binding of compounds with BH-3 peptide were also measured using Bcl-xL as previously described. Id.
# (§2) Cell lines were grown in RPMI 1640 medium (Gibco, Grand Island, N.Y.) supplemented with 5% fetal bovine serum (Hyclone, Logan, Utah). Also shown is the ratio of TAMH cells expressing Bcl-xL to those expressing A142L (WT:142L). The assay measures the potency of various compounds with respect to inducing apoptosis in these cells.
# (§3) The compounds described in Example 2 were tested for their ability to inhibit Bcl-2 gain-of-function in TAMH cells, TAMH cells overexpressing […] (TAMH-Bcl-xL), TAMH cells transfected with Neo vector (Neo), TAMH cells over expressing a variant of Bcl-xL (A142L) using the methods of Example 1. 3-6.
# (§4) The effects of the compounds described in Example 8 on TAMH cells, TAMH cells overexpressing Bcl-xL (TAMH-Bcl-xL), TAMH cells transfected with Neo vector (Neo), TAMH cells over expressing a variant of Bcl-xL (A142L) is shown in Table 8
# (§5) The effects of the compounds described in Example 10 on TAMH cells, TAMH cells overexpressing Bcl-xL (TAMH-Bcl-xL), TAMH cells transfected with Neo vector (Neo), TAMH cells over expressing a variant of Bcl-xL (A142L) is shown in the following Table 10
# [2] = system: TAMH cells transfected with Neo vector (Neo); test: Cytotoxicity / apoptosis induction in TAMH cells transfected with Neo vector; assay type: cell-based
# Procedure: as §1, §2, §3, §4, §5
# [3] = system: TAMH cells over expressing a variant of Bcl-xL (A142L); test: Cytotoxicity / apoptosis induction in TAMH cells over expressing Bcl-xL variant A142L; assay type: cell-based; settings: Table 4; for EC50: TAMH A142L cells; for WT:142L: ratio of TAMH cells expressing Bcl-xL to those expressing A142L
# Procedure: as §1, §2, §3
# [4] = Table 5, TAMH cells overexpressing Bcl-xL (Tabx2s), read-out: 2S EC50
# [5] = Table 5, TAMH Neo cells, read-out: Neo EC50
# [6] = Table 3, TAMH cells overexpressing Bcl-xL (Tabx2s), read-out: 2S EC50
# [7] = Table 3, TAMH Neo cells, read-out: Neo EC50
# [8] = Table 4, TAMH-Bcl-xL cells, read-out: Bcl-xL
# [9] = Table 4, TAMH Neo cells, read-out: Neo
# [10] = Table 10, read-out: IC50 TAMH Bcl-XL
# [11] = Table 10, read-out: IC50 TAMH Neo
# [12] = Table 15, read-out: IC50 TAMH Bcl-XL
# [13] = Table 15, read-out: IC50 TAMH Neo
structure (smiles),measurement,setting,value
Cc1cccc(Cc2ccc(Cc3cccc(C)c3)c(O)c2)c1 [Compound 0051],EC50,[1]; [4],1.5 µM
same,EC50,[2]; [5],15.4 µM
same,Log P,Log P; Table 5,6.18
COc1ccc(Cl)cc1Cc1cc(Cl)cc(Cc2cc(Cl)ccc2O)c1OC [Compound 0088],EC50,[1]; [4],0.6 µM
same,EC50,[2]; [5],6.1 µM
same,Log P,Log P; Table 5,7.4
CC(=O)Oc1ccc(C)cc1Cc1cc(C)cc(Cc2cc(C)ccc2OC(C)=O)c1OC(C)=O [Compound 0098],EC50,[1]; [4],1.6 µM
same,EC50,[2]; [5],10.4 µM
same,Log P,Log P; Table 5,7.45
Cc1ccc(OC(=O)C(C)C)c(Cc2cc(C)cc(Cc3cc(C)ccc3OC(=O)C(C)C)c2O)c1 [Compound 0127],EC50,[1]; [4],3.2 µM
same,Log P,Log P; Table 5,8.31
CC(C)(C)c1ccc(Cc2ccc(Cl)cc2Cl)cc1 [Compound 0149],EC50,"[1]; Mus musculus, Table 6, TAMH cells overexpressing Bcl-xL (Tabx2s), read-out: 2S EC50",1.1 µM
same,EC50,"[2]; Mus musculus, Table 6, TAMH Neo cells, read-out: Neo EC50",9.2 µM
same,logP,Log P,6.28
CC(C)(C)c1ccc(Cc2ccc(Oc3ccccc3)cc2O)cc1 [Compound 0155],EC50,[1]; [4],1.9 µM
same,EC50,[2]; [5],12 µM
same,Log P,Log P; Table 5,7.24
Oc1ccc(Cl)cc1/C=N/Nc1ccccn1 [Compound 0229],EC50,[1]; [6],2.4 µM
same,EC50,[2]; [7],≥ 50 µM
same,Log P,Log P; Table 3,2.570
Oc1ccc(Cl)cc1/C=N/Nc1ccc(C(F)(F)F)cn1 [Compound 0231],EC50,[1]; [6],2.1 µM
same,EC50,[2]; [7],≥ 50 µM
same,Log P,Log P; Table 3,3.560
Oc1c(Cl)cc(Cl)cc1/C=N/Nc1ccccn1 [Compound 0233],EC50,[1]; [6],3.5 µM
same,EC50,[2]; [7],≥ 50 µM
same,Log P,Log P; Table 3,3.190
Oc1ccc(Br)cc1/C=N/Nc1ccccn1 [Compound 0241],EC50,[1]; [6],0.2 µM
same,EC50,[2]; [7],≥ 50 µM
same,Log P,Log P; Table 3,2.740
Oc1c(Br)cc(Br)cc1/C=N/Nc1ccccn1 [Compound 0245],EC50,[1]; [6],3.3 µM
same,EC50,[2]; [7],≥ 50 µM
same,Log P,Log P; Table 3,3.540
Oc1c(Br)cc(Cl)cc1/C=N/Nc1ccc(C(F)(F)F)cn1 [Compound 0275],EC50,[1]; [6],1.4 µM
same,EC50,[2]; [7],9.9 µM
same,Log P,Log P; Table 3,4.980
COc1cc(Br)c(O)c(/C=N/NC(=O)c2ccccc2)c1 [Compound 0283],EC50,[1]; [6],2.5 µM
same,EC50,[1]; [8],3.5 µM
same,Neo:Bcl,[1]; Table 4,7.1
same,EC50,[2]; [7],≥ 50 µM
same,EC50,[2]; [9],> 25 µM
same,EC50,[3],> 25 µM
same,WT:142L,[3],7.1
same,Log P,Log P; Table 3,3.730
COc1cc(Br)cc(/C=N/Nc2ccc(C(F)(F)F)cc2)c1O [Compound 0333],EC50,[1]; [6],2.2 µM
same,EC50,[1]; [8],2.7 µM
same,Neo:Bcl,[1]; Table 4,9.2
same,EC50,[2]; [7],26.9 µM
same,EC50,[2]; [9],> 25 µM
same,EC50,[3],22.2 µM
same,WT:142L,[3],8.2
same,Log P,Log P; Table 3,6.510
O=C(/N=C/c1cc(Br)cc(Br)c1O)c1ccccc1 [Compound 0347],EC50,"[1]; Table 6, TAMH cells overexpressing Bcl-xL (Tabx2s), read-out: 2S EC50",0.5 µM
same,EC50,"[2]; Table 6, TAMH Neo cells, read-out: Neo EC50",5.8 µM
same,Log P,Log P; Table 6,4.250
COc1cc(O)c(/C=N/Nc2ccccn2)cc1Br [Compound 0351],EC50,[1]; [6],2.6 µM
same,EC50,[1]; [8],> 25 µM
same,Neo:Bcl,[1]; Table 4,1
same,EC50,[2]; [7],≥ 50 µM
same,EC50,[2]; [9],> 25 µM
same,EC50,[3],> 25 µM
same,WT:142L,[3],1
same,Log P,Log P; Table 3,3.03
CC(C)(C)c1cc(O)c(/C=N/Nc2ccccn2)cc1Br [Compound 0353],EC50,[1]; [6],1.3 µM
same,EC50,[2]; [7],10 µM
same,Log P,Log P; Table 3,4.810
COc1c(Cl)cc(/C=N/Nc2ccccn2)c(O)c1Br [Compound 0355],EC50,[1]; [6],1.6 µM
same,EC50,[2]; [7],33 µM
same,Log P,Log P; Table 3,3.820
Cc1cc(Cl)cc(Cc2cc(Cl)cc(C)c2O)c1O [Compound 77122],Fold Select. (Neo/Bcl-XL),[1]; Table 10,3.3
same,IC50,[1]; [10],2 µM
same,IC50,[2]; [11],6.6 µM
Cc1cccc(Cc2cccc(C)c2O)c1O [Compound 85476],Fold Select. (Neo/Bcl-XL),[1]; Table 10,2.9
same,IC50,[1]; [10],18.8 µM
same,IC50,[2]; [11],55.3 µM
CN(Cc1cc(Cl)cc(Cl)c1O)Cc1c(O)ccc2ccccc12 [Compound 85479],Neo/Bcl-XL,[1]; Table 18,5.8
same,EC50,"[1]; Table 18, read-out: Bcl-XL",2.5 µM
same,EC50,"[2]; Table 18, read-out: Neo",14.5 µM
CC(C)c1ccc(S(=O)(=O)c2ccc([N+](=O)[O-])cc2[N+](=O)[O-])cc1 [Compound 85653],Fold Selectivity (Neo/Bcl-XL),[1]; Table 15,2.7
same,IC50,[1]; [12],4.5 µM
same,IC50,[2]; [13],12 µM
CCN(Cc1cc(Cl)cc(C)c1O)Cc1c(O)ccc2ccccc12 [Compound 88850],Neo/Bcl-XL,[1]; Table 18,2.7
same,EC50,"[1]; Table 18, read-out: Bcl-XL",4.5 µM
same,EC50,"[2]; Table 18, read-out: Neo",12 µM
CN(Cc1cc(Br)cc(Br)c1O)Cc1c(O)ccc2ccccc12 [Compound 88852],Neo/Bcl-XL,[1]; Table 18,5.8
same,EC50,"[1]; Table 18, read-out: Bcl-XL",3.7 µM
same,EC50,"[2]; Table 18, read-out: Neo",21.5 µM
O=[N+]([O-])c1ccc(S(=O)(=O)Cc2ccccc2)c([N+](=O)[O-])c1 [Compound 122657],Fold Selectivity (Neo/Bcl-XL),[1]; Table 15,3.9
same,IC50,[1]; [12],3.5 µM
same,IC50,[2]; [13],13.5 µM
O=[N+]([O-])c1ccc(S(=O)(=O)Cc2ccccc2)c2nonc12 [Compound 228148],EC50,"[1]; Table 8, read-out: TAMH Bcl-xL",6 µM
same,Neo/Bcl-xL,"[1]; Table 8, selectivity ratio",3.8
same,Fold Selectivity (Neo/Bcl-XL),[1]; Table 15,3.8
same,IC50,[1]; [12],6 µM
same,EC50,"[2]; Table 8, read-out: TANH Neo",22.5 µM
same,IC50,[2]; [13],22.5 µM
CC(C)(C)c1cc(C(C)(C)c2ccccc2)cc(Cc2cc(C(C)(C)c3ccccc3)cc(C(C)(C)C)c2O)c1O [Compound 288938],Fold Select. (Neo/Bcl-XL),[1]; Table 10,3.3
same,IC50,[1]; [10],28 µM
same,IC50,[2]; [11],93.1 µM
COc1ccc(C(=O)N/N=C2\C(=O)c3c(C)cc(C)cc3CC2(C)C)cc1 [Compound 310343],IC50,"[1]; Mus musculus, TAMH, Table 16, read-out: TAMH Bcl-XL IC50",25 µM
same,Fold Selectivity (Neo/Bcl-XL),[1]; Table 16,>4
same,IC50,"[2]; Mus musculus, TAMH, Table 16, read-out: TAMH Neo IC50",> 100 µM
O=[N+]([O-])c1ccc(S(=O)(=O)C2CCCCC2Cl)c([N+](=O)[O-])c1 (centres unmarked) [Compound 405645],Fold Selectivity (Neo/Bcl-XL),[1]; Table 15,2.1
same,IC50,[1]; [12],2.9 µM
same,IC50,[2]; [13],6.1 µM
O=S(=O)(c1cc(Cl)ccc1O)c1cc(Cl)ccc1O [Compound 406932],Fold Select. (Neo/Bcl-XL),[1]; Table 10,4.4
same,IC50,[1]; [10],13.6 µM
same,Fold Selectivity (Neo/Bcl-XL),[1]; Table 15,4.4
same,IC50,[1]; [12],13.6 µM
same,IC50,[2]; [11],57.2 µM
same,IC50,[2]; [13],57.2 µM
[O-][S+](c1cc(Cl)cc(Cl)c1O)c1cc(Cl)cc(Cl)c1O [Compound 523910],Fold Select. (Neo/Bcl-XL),[1]; Table 10,6.4
same,IC50,[1]; [10],2.2 µM
same,IC50,[2]; [11],14.2 µM
Cc1cc(C(C)(C)C)cc(Cc2cc(C(C)(C)C)cc(Cc3cc(C(C)(C)C)cc(C)c3O)c2O)c1O [Compound 634604],Fold Select. (Neo/Bcl-xL),[1]; Table 13,6.4
same,IC50,"[1]; Table 13, read-out: IC50 TAMH Bcl-xL",5 µM
same,IC50,"[2]; Table 13, read-out: IC50 TAMH Neo",32.1 µM
